Data as given in PubChem BioAssay AID248 (DTP/NCI, 2004).
“And” between values parts separate entries of the source, which are not always exact repeats. Identical values can stand only once. Inconclusive results and toxic doses are left out. Cut-off read from the data, not from the text of the source: active = T/C of 150% or more; inactive = T/C below 125%.

Test system: L1210 leukemia ip in BDF1 mice, survival T/C
Test: NCI In Vivo Anticancer Drug Screen. Data for tumor model L1210 Leukemia (intraperitoneal) in B6D2F1 (BDF1) mice
Details: endpoint: mean survival time, higher = longer survival
Summary of the method: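 Transplantable tumor model; survival measured in treated vs vehicle control mice. Value = treated/control.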

[1] = dose: 100.0 mg/kg/injection, schedule: Q01DX009 (ip), vehicle: Klucel (hydroxypropylcellulose) (HPC)
[2] = dose: 100.0 mg/kg/injection, schedule: Q04DX003 (ip), vehicle: Klucel (hydroxypropylcellulose) (HPC)
[3] = dose: 200.0 mg/kg/injection, schedule: Q01DX009 (ip), vehicle: Klucel (hydroxypropylcellulose) (HPC)
[4] = dose: 200.0 mg/kg/injection, schedule: Q04DX003 (ip), vehicle: Klucel (hydroxypropylcellulose) (HPC)
[5] = dose: 400.0 mg/kg/injection, schedule: Q01DX009 (ip), vehicle: Klucel (hydroxypropylcellulose) (HPC)
[6] = dose: 400.0 mg/kg/injection, schedule: Q04DX003 (ip), vehicle: Klucel (hydroxypropylcellulose) (HPC)
[7] = dose: 100.0 mg/kg/injection, schedule: Q01DX001 (ip), vehicle: carboxymethylcellulose (CMC)
[8] = dose: 200.0 mg/kg/injection, schedule: Q01DX001 (ip), vehicle: carboxymethylcellulose (CMC)
[9] = dose: 100.0 mg/kg/injection, schedule: Q01DX001 (ip), vehicle: Klucel (hydroxypropylcellulose) (HPC)
[10] = dose: 200.0 mg/kg/injection, schedule: Q01DX001 (ip), vehicle: Klucel (hydroxypropylcellulose) (HPC)
[11] = dose: 400.0 mg/kg/injection, schedule: Q01DX001 (ip), vehicle: Klucel (hydroxypropylcellulose) (HPC)
[12] = dose: 100.0 mg/kg/injection, schedule: Q04DX003 (ip), vehicle: saline with Tween-80
[13] = dose: 200.0 mg/kg/injection, schedule: Q04DX003 (ip), vehicle: saline with Tween-80
[14] = dose: 100.0 mg/kg/injection, schedule: Q01DX001 (ip), vehicle: saline
[15] = dose: 200.0 mg/kg/injection, schedule: Q01DX001 (ip), vehicle: saline

Measured: T/C

BrCC1CCCCO1 (stereo not drawn)
inactive: dose: 12.5 mg/kg/injection, schedule: Q01DX009 (ip), vehicle: saline with Tween-80 94 % of control | dose: 12.5 mg/kg/injection, schedule: Q04DX003 (ip), vehicle: saline with Tween-80 108 % of control | dose: 25.0 mg/kg/injection, schedule: Q01DX009 (ip), vehicle: saline with Tween-80 99 % of control | dose: 25.0 mg/kg/injection, schedule: Q04DX003 (ip), vehicle: saline with Tween-80 108 % of control | dose: 50.0 mg/kg/injection, schedule: Q01DX009 (ip), vehicle: saline with Tween-80 99 % of control | dose: 50.0 mg/kg/injection, schedule: Q04DX003 (ip), vehicle: saline with Tween-80 97 % of control

Cc1noc(C)c1CC1(Cc2c(C)noc2C)C(=O)CCC2(C)CCCC=C21 (stereo not drawn)
inactive: [1] 92 % of control | [2] 95 % of control | [3] 98 % of control | [4] 93 % of control | [5] 97 % of control | [6] 96 % of control

O=c1[nH]c2ccccc2c2ccc(Cl)cc12
inactive: [7] 103 % of control | [8] 100 % of control | dose: 400.0 mg/kg/injection, schedule: Q01DX001 (ip), vehicle: carboxymethylcellulose (CMC) 102 % of control

NC(=O)c1cc([N+](=O)[O-])ccc1N1CC[N+](CCCl)=N1
inactive: dose: 100.0 mg/kg/injection, schedule: Q01DX001 (ip), vehicle: saline with Tween-80 100 % of control | dose: 200.0 mg/kg/injection, schedule: Q01DX001 (ip), vehicle: saline with Tween-80 91 % of control | dose: 400.0 mg/kg/injection, schedule: Q01DX001 (ip), vehicle: saline with Tween-80 90 % of control

Cc1cc(N(c2c(Cl)c(Cl)c(NS(=O)(=O)c3ccccc3)c(Cl)c2Cl)S(=O)(=O)c2ccccc2)cc(C)c1N
inactive: [9] 98 % of control | [1] 100 % of control | [10] 95 % of control | [3] 95 % of control | [11] 90 % of control | [5] 94 % of control

O=C(O)c1cc2c(Br)cccc2c2cc(C(F)(F)F)ccc12
inactive: [12] 97 % of control | [13] 113 % of control

CSc1ncc(CO)c(Nc2ccccc2Cl)n1
inactive: [2] 103 % of control | [4] 103 % of control | [6] 95 % of control

Cc1ccc(/C=C/c2ccccn2)cc1
inactive: dose: 50.0 mg/kg/injection, schedule: Q01DX001 (ip), vehicle: carboxymethylcellulose (CMC) 100 % of control | dose: 50.0 mg/kg/injection, schedule: Q04DX003 (ip), vehicle: carboxymethylcellulose (CMC) 105 % of control | [7] 100 % of control | dose: 100.0 mg/kg/injection, schedule: Q01DX009 (ip), vehicle: carboxymethylcellulose (CMC) 100 % of control and 90 % of control | dose: 100.0 mg/kg/injection, schedule: Q04DX002 (ip), vehicle: carboxymethylcellulose (CMC) 98 % of control and 107 % of control | dose: 100.0 mg/kg/injection, schedule: Q04DX003 (ip), vehicle: carboxymethylcellulose (CMC) 110 % of control | [8] 100 % of control | dose: 200.0 mg/kg/injection, schedule: Q01DX009 (ip), vehicle: carboxymethylcellulose (CMC) 93 % of control and 108 % of control | dose: 200.0 mg/kg/injection, schedule: Q04DX002 (ip), vehicle: carboxymethylcellulose (CMC) 97 % of control and 113 % of control | dose: 200.0 mg/kg/injection, schedule: Q04DX003 (ip), vehicle: carboxymethylcellulose (CMC) 96 % of control | dose: 400.0 mg/kg/injection, schedule: Q04DX002 (ip), vehicle: carboxymethylcellulose (CMC) 98 % of control and 90 % of control

Nc1nc(=S)[nH]c2nsnc12
inactive: [12] 98 % of control | [13] 96 % of control | dose: 400.0 mg/kg/injection, schedule: Q04DX003 (ip), vehicle: saline with Tween-80 103 % of control

CC(=O)OC1CCC2(C)C(=CCC3C2CCC2(C)C3CC(SCC(=O)O)C2SCC(=O)O)C1 (stereo not drawn)
inactive: dose: 100.0 mg/kg/injection, schedule: Q04DX003 (sc), vehicle: steriod suspending solution 98 % of control | dose: 200.0 mg/kg/injection, schedule: Q04DX003 (sc), vehicle: steriod suspending solution 106 % of control | dose: 400.0 mg/kg/injection, schedule: Q04DX003 (sc), vehicle: steriod suspending solution 106 % of control

O=C/C=C\c1ccccc1O
inactive: [14] 105 % of control | [15] 105 % of control

Cc1csc[n+]1Cc1ccc([N+](=O)[O-])cc1
inactive: dose: 5.0 mg/kg/injection, schedule: Q01DX001 (ip), vehicle: saline 100 % of control | dose: 10.0 mg/kg/injection, schedule: Q01DX001 (ip), vehicle: saline 102 % of control | dose: 20.0 mg/kg/injection, schedule: Q01DX001 (ip), vehicle: saline 102 % of control | dose: 40.0 mg/kg/injection, schedule: Q01DX001 (ip), vehicle: saline 103 % of control | dose: 80.0 mg/kg/injection, schedule: Q01DX001 (ip), vehicle: saline 100 % of control | [14] 98 % of control

CCCCCCCCCC[Si](C)(C)C
inactive: [14] 100 % of control | [15] 97 % of control | dose: 400.0 mg/kg/injection, schedule: Q01DX001 (ip), vehicle: saline 100 % of control

Clc1ccc2c(c1)C(N1CCOCC1)c1cc(Cl)cc(Cl)c1-2 (stereo not drawn)
inactive: [9] 102 % of control | [2] 98 % of control | [10] 92 % of control | [4] 96 % of control | [11] 96 % of control | [6] 94 % of control

O=C(O)CNC(=O)c1cccc(Cl)c1
inactive: dose: 100.0 mg/kg/injection, schedule: Q04DX002 (ip), vehicle: saline with Tween-80 95 % of control | dose: 200.0 mg/kg/injection, schedule: Q04DX002 (ip), vehicle: saline with Tween-80 95 % of control | dose: 400.0 mg/kg/injection, schedule: Q04DX002 (ip), vehicle: saline with Tween-80 95 % of control

N#Cc1ccc(C(=O)C=C(C(F)(F)F)C(F)(F)F)cc1
inactive: dose: 6.25 mg/kg/injection, schedule: Q01DX009 (ip), vehicle: other 95 % of control | dose: 12.5 mg/kg/injection, schedule: Q01DX009 (ip), vehicle: other 98 % of control
